This is an account of results in patent publication US12728119B2, “Pharmaceutical composition for preventing or treating cancer comprising 3-ketoacyl CoA thiolase inhibitor and carnitine acylcarnitine carrier inhibitor” (NATIONAL CANCER CENTER, priority 2020, dated 2026).

Each structure is given as a SMILES string.

The experiment relates to MIA PaCa-2 cells. Nature of the experiment: Xenograft tumor model. Format: in vivo, Balb/c-nu mice. How it is done:
MIA PaCa-2 cells (1×10 7) in 100 μl PBS were subcutaneously inoculated into 6-8 weeks old Balb/c-nu mice (Orient, Seoul, Korea) using a 1 ml syringe. After one week, the mice were divided into three groups: a control group (solvent treatment), a KN713 40 mg/kg/100 μl treatment group, and a KN713 80 mg/kg/200 μl treatment group. KN713 was administered intraperitoneally once a day (for 49 days, 6 days/week, n=7). The primary tumor size was measured weekly using a caliper, and the tumor volume was calculated using the formula V=(A×B^2)/2 (V=volume (mm^3), A=long diameter, B=short diameter). This experiment was reviewed and approved by the Institutional Animal Care and Use Committee (IACUC) of the National Cancer Center Research Institute, which was established by the International Association for Accreditation of Laboratory Animals (It was accredited by AAALAC International).

Consider `COc1ccc(CN2CCNCC2)c(OC)c1OC` [KN713, trimetazidine], for which the “tumor size (tumor volume)” value runs as follows: (KN713 40 mg/kg intraperitoneally once a day, column 3 (measured weekly), Control 148.59) 147.09 mm^3; (KN713 40 mg/kg intraperitoneally once a day, column 4 (measured weekly), Control 448.52) 319.40 mm^3; (KN713 40 mg/kg intraperitoneally once a day, column 5 (measured weekly), Control 748.89) 499.29 mm^3; (KN713 40 mg/kg intraperitoneally once a day, column 6 (measured weekly), Control 944.41) 593.57 mm^3; (KN713 40 mg/kg intraperitoneally once a day, column 7 (measured weekly), Control 1472.13) 790.38 mm^3; (KN713 40 mg/kg intraperitoneally once a day, column 8 (measured weekly), Control 1709.54) 965.18 mm^3. Also, the “tumor size (tumor volume)” value was 147.36 mm^3 (KN713 80 mg/kg intraperitoneally once a day, column 3 (measured weekly), Control 148.59); 279.36 mm^3 (KN713 80 mg/kg intraperitoneally once a day, column 4 (measured weekly), Control 448.52); 372.00 mm^3 (KN713 80 mg/kg intraperitoneally once a day, column 5 (measured weekly), Control 748.89); 420.82 mm^3 (KN713 80 mg/kg intraperitoneally once a day, column 6 (measured weekly), Control 944.41); 589.49 mm^3 (KN713 80 mg/kg intraperitoneally once a day, column 7 (measured weekly), Control 1472.13); 555.42 mm^3 (KN713 80 mg/kg intraperitoneally once a day, column 8 (measured weekly), Control 1709.54). Besides, the tumor size entry (mouse model transplanted with MIA PaCa2, result in words) was “significantly suppressed”.
